SMILES strings stand for the structures.

A short description of the data set: Water content of the crystalline forms (gravimetric vapour sorption, 25° C.). Format: physicochemical. To be noted: water content varies as a function of relative humidity; GVS profiles 20 to 75% RH at 25° C. (FIGS. 4-6); hydrochloride. As for the experimental part: Measurements were performed on an IGASORP Model HAS-036-080 moisture sorption instrument (Hiden Isochema, Warrington, UK) operated in stepping mode at 25° C. The sample was allowed to equilibrate at the starting relative humidity (RH) before starting a pre-defined humidity program in steps of 5% ΔRH and with a maximal equilibration time of 24 hours per step. About 20 to 30 mg of each sample was used.

As to `CCCCOC(=O)N1CCN(C(=O)[C@H](CP(=O)(O)O)NC(=O)c2cc(N3CC[C@H](OC)C3)nc(-c3ccccc3)n2)CC1.Cl` [Crystalline form 1, 4-((R)-2-{[6-((S)-3-methoxy-pyrrolidin-1-yl)-2-phenyl-pyrimidine-4-carbonyl]-amino}-3-phosphono-propionyl)-piperazine-1-carboxylic acid butyl ester hydrochloride], the “coordinated and/or non-coordinated water comprised in the crystalline form” value is on record as 0 to 3%.
As for `CCCCOC(=O)N1CCN(C(=O)[C@H](CP(=O)(O)O)NC(=O)c2cc(N3CC[C@H](OC)C3)nc(-c3ccccc3)n2)CC1.Cl` [Crystalline form 3, 4-((R)-2-{[6-((S)-3-methoxy-pyrrolidin-1-yl)-2-phenyl-pyrimidine-4-carbonyl]-amino}-3-phosphono-propionyl)-piperazine-1-carboxylic acid butyl ester hydrochloride], the figure is 2.5 to 8%; as for `CCCCOC(=O)N1CCN(C(=O)[C@H](CP(=O)(O)O)NC(=O)c2cc(N3CC[C@H](OC)C3)nc(-c3ccccc3)n2)CC1.Cl` [Crystalline form 2, 4-((R)-2-{[6-((S)-3-methoxy-pyrrolidin-1-yl)-2-phenyl-pyrimidine-4-carbonyl]-amino}-3-phosphono-propionyl)-piperazine-1-carboxylic acid butyl ester hydrochloride], 5 to 10%.

The values above are taken from patent US20250163086A1, “Crystalline Forms” (Viatris Asia Pacific Pte. Ltd., priority 2016, published 2025).
